Measurements as given in US20220218734A1, “COMBINATIONS OF THERAPEUTIC AGENTS FOR TREATING UVEAL MELANOMA” (Universiteit Gent, priority 2019, published 2022).

Assays:
[1] = system: UM cell lines 92.1 and OMM1; assay: ASO-compound combination validation, Excess over Bliss (viability and confluence); type: cell-based, human; conditions: compound combined with LNA ASO 3 (50 nM), 72 h, viability and confluence read outs; >0 synergism
Description: For the validation experiments, uveal melanoma cell lines 92.1 and OMM1 were seeded in 96 well plates (Corning costar 3596) at a density of 5000 cells/well and were allowed to settle overnight. Subsequently, the cells were transfected using lipofectamine 2000 (Life Technologies) with 50 or 100 nM LNA ASO 3 or LNA NTC and treated with various concentrations of the compounds and with a final DMSO concentration of maximum 0.1%. The compounds were added to the wells using the HP D300e Digital dispenser (Tecan). Control cells were transfected with LNA NTC ASO and treated with DMSO.
Cell viability was also examined using a CellTiter-Glo assay (Promega). Before initiating the assay, the culture plates and reconstituted assay buffer were placed at room temperature for 30 minutes. Next, the culture medium was replaced by 200 μl fresh culture medium—- assay buffer (1:1) mix. To induce complete cell lysis, the plates were shaken for 10 min. 100 μl from each well was subsequently transferred to an opaque 96-well plate (Nunc), which was measured with a GloMax 96 Microplate Luminometer (Promega). The CellTiter-Glo assay was performed on various predefined timepoints.
For real-time analysis, IncuCyte Zoom system and IncuCyte S3 system (Essen BioScience) were used. Cells were seeded and treated as described above. After treatment, the culture plate was incubated in an IncuCyte Zoom system or IncuCyte S3 system at 37° C. in a humidified 5% CO2 incubator. Phase contrast whole well images were captured every 3 h. The IncuCyte ZOOM and IncuCyte S3 software (Essen BioScience) were utilized in real-time to measure % confluence, as a proxy for proliferation.
Bliss independence (BI) scores were calculated to determine ASO-compound interactions. The predictive performance (BI score) is then compared to the observed drug interaction data measured by the Excess over Bliss. Excess over Bliss scores>0 indicate drug synergism, Excess over Bliss scores=0 indicate additive effects and Excess over Bliss scores<0 indicate drug antagonism.

4E-BP1 (T37/T46) = assay: Western blot for 4E-BP1 and phospho-4E-BP1; type: cell-based, human; conditions: 92.1, 24 h, GDC-0349 0.625 μM or 1.25 μM; for phosphorylated 4E-BP1 (T37/T46) levels: ASO 3 50 nM
Description: (§1) Cells were lysed in RIPA lysis buffer (5 mg/ml sodium deoxycholate, 150 mM NaCl, 50 mM Tris-HCl pH 7.5, 0.1% SDS solution, 1% NP-40) supplemented with protease and/or phosphatase inhibitors Protein concentrations were determined with the BCA protein assay (Bio-Rad). In total, 35 μg of protein lysate was loaded onto an SDS-PAGE gel (10% Pre-cast, Bio-Rad), run at 100 V for 1 h and subsequently blotted onto a nitrocellulose membrane. Antibodies against phospho-S6 Ribosomal Protein (Ser235/236) (#2211, 1:1000 dilution), phospho-4E-BP(Thr37/46) (#2855, 1:1000 dilution), S6 Ribosomal Protein (#2317, 1:1000 dilution) and 4E-BP1 (#9644, 1:1000 dilution) were purchased from Cell Signaling Technology. HRP-labeled anti-rabbit (7074 S, Cell Signaling, 1:10 000 dilution) and anti-mouse (7076P2, Cell Signaling, 1:10 000 dilution) antibodies were used as secondary antibodies. Anti-Vinculin antibody (V9131, Sigma-Aldrich, 1:10 000 dilution) was used as loading control. The antibodies were diluted in BSA/TBST (5% BSA in TBS with 0.1% Tween20) and antibody binding with membrane was evaluated using the SuperSignal West Dura Extended Duration Substrate (ThermoFisher Scientific) or SuperSignal West Femto Maximum Sensitivity Substrate (ThermoFisher Scientific). Imaging was performed by means of the Amersham Imager 680 (GE Healthcare). Image J was used for the quantification of the blots.

[2] = system: UM cell lines 92.1 and OMM1; assay: SUnSET puromycin incorporation (translation rate); type: cell-based, human; conditions: 92.1 and OMM1, 24 h; ASO 3 50 nM, GDC-0349 0.625 μM
Description: Cells were seeded in T75 culture flasks (Cellstar) at a density of 1 170 000 cells/T75 flask 24 h prior to transfection. The cells were transfected with 50 nM LNA ASO 3 or NTC using lipofectamine 2000, followed by GDC-0349 (0.625 μM) or DMSO treatment. 24 h later, cells were washed in 1× phosphate buffer saline (PBS) and subsequently incubated with puromycin containing media (InvivoGen, 10 μg/ml) for 10 min. Puromycin incorporation is a proxy for the mRNA translation rate in vitro and was measured by Western blotting using an anti-puromycin antibody (MABE343, clone 12D10, Merck Millipore, 1:10 000). The antibody was diluted in Milk/TB ST (5% non-fat dry milk in TBS with 0.1% Tween20). Imaging was performed by means of the Amersham Imager 680 (GE Healthcare). An equal protein loading was verified using a ponceau S staining (Sigma Aldrich). Image J was used for the quantification of the blots.

[3] = system: UM cell lines 92.1 and OMM1; assay: Differential gene expression analysis by RNA sequencing; type: cell-based, human; conditions: 92.1 and OMM1, 24 h; ASO 3 50 nM, GDC-0349 0.625 μM
Description: RNA sequencing was performed on quadruplicates of NTC (50 nM), ASO 3 (50 nM), GDC-0349 (0.625 μM) and ASO 3 (50 nM)+GDC-0349 (0.625 μM) treated 92.1 and OMM1 cells. Libraries for RNA sequencing were prepared using the Quant Seq 3′ end library prep […] and quantified on a Qubit 2.0 Fluorometer prior to single-end sequencing with 75 bp read length on a NextSeq 500 sequencer (Illumina). Reads were mapped to the human genome (hg38) and gene expression was quantified using HTSeq. Differentialy expressed genes were identified using DESeq2.

rpS6 (S235/S236) = assay: Western blot for rpS6 and phospho-rpS6; type: cell-based, human; conditions: 92.1, 24 h, GDC-0349 0.625 μM or 1.25 μM; for phosphorylated rpS6 (S235/S236) levels: ASO 3 50 nM
Description: as §1

UM cell line OMM1 = assay: Seahorse XF Cell Mito Stress Test; type: cell-based, human; conditions: GDC-0349 0.625 μM, ASO 3 50 nM, combination compared to single ASO 3 treatment
Description: Cells were seeded in T75 culture flasks (Cellstar) at a density of 1 170 000 cells/T75 flask 24 h prior to transfection. The cells were transfected with 50 nM ASO 3 or NTC using lipofectamine 2000, followed by GDC-0349 (0.625 μM) treatment. Four hours later, 25 000 cells were transferred to Seahorse XFp Cell Culture Miniplates (Agilent) and were allowed to settle overnight. Subsequently, oxygen consumption rates were measured in triplicates for each condition using the Seahorse XFp device (Agilent) according to the standard mito stress test procedures in seahorse assay medium supplemented with 14.3 mM glucose, 1 mM pyruvate and 2 mM glutamine (Sigma), and cells were sequentially challenged with 1 μM oligomycin, 1 μM carbonyl cyanide 4-(trifluoromethoxy)-phenylhydrazone (FCCP) and 0.5 μM of a rotenone antimycin A mix (Agilent). Following the assay, protein concentrations were calculated based upon absorbance reading at 280 nm (Biodrop, Isogen Lifescience) for normalization of the results. Spare respiratory capacity was calculated as the difference between maximal and the basal oxygen consumption rate. Relative oxygen consumption rates are relative compared to NTC values.

[4] = system: UM patient derived xenografts (PDX) model (MP46); assay: Tumor growth in UM patient derived xenograft model; type: in vivo, mouse
Description: Since SAMMSON expression is not conserved across species, an UM patient derived xenografts (PDX) model (MP46) was used to investigate the effect on tumor growth in vivo upon SAMMSON knock down. LNA ASO 3 and LNA non targeting control (NTC) were subcutaneous injected at a dose of 10 mg/kg three times in the first week and twice per week in the second and third week.

SAMMSON = SAMMSON expression / knockdown by RT-qPCR in UM cells; type: cell-based, human; conditions: in most cell lines
Description: Total RNA was extracted using the miRNeasy kit (Qiagen) according to the manufacturer's instructions, including on-column DNase treatment. The Nanodrop (ThermoFisher Scientific) was used to determine RNA concentrations and cDNA synthesis was performed using the iScript Advanced cDNA synthesis kit (Bio-Rad) using a mix containing 200 ng of RNA, 4 μl of 5× iScript advanced reaction buffer and 1 μl of iScript advanced reverse transcriptase. The qPCR mix contains 2 μl of cDNA (5 ng), 2.5 μl SsoAdvanced Universal SYBR Green Supermix (Bio-Rad), 0.25 μl forward (5 μM, IDT) and reverse primer (5 μM, IDT) and was analyzed on a LC-480 device (Roche). Expression levels were normalized using expression data of at least 2 stable reference genes out of 4 tested reference genes (SDHA^9,10, HPRT1^11,12, UBC^13 and TBP^14,15). Analysis was performed using the qbase+software (https://www.qbaseplus.com).

CC(=O)Nc1ccc(C(=O)Nc2ccccc2N)cc1 [CI-994, N-(2-aminophenyl)-4-acetamidobenzamide]
Excess over Bliss score (synergism) [1]: synergistic

CCNC(=O)Nc1ccc(-c2nc3c(c(N4CCOC[C@@H]4C)n2)CCN(C2COC2)C3)cc1 [GDC-0349, 3-ethyl-1-(4-{4-[(3S)-3-methylmorpholin-4-yl]-7-(oxetan-3-yl)-5H,6H,7H,8H-pyrido[3,4-d]pyrimidin-2-yl}phenyl)urea]
phosphorylated 4E-BP1 (T37/T46) levels (4E-BP1 (T37/T46)): dose dependent reduction | total 4E-BP1 levels (4E-BP1 (T37/T46)): remain unaffected | Excess over Bliss score (synergism) [1]: synergistic | translation rate (incorporated puromycin signal) [2]: translation inhibition | expression pattern of differentially expressed genes compared to NTC ASO [3]: not affecting the expression of many of these genes | phosphorylated rpS6 (S235/S236) levels (rpS6 (S235/S236)): dose dependent reduction | total rpS6 levels (rpS6 (S235/S236)): remain unaffected | mitochondrial function / oxidative phosphorylation (oxygen consumption rate) (UM cell line OMM1): does not alter the mitochondrial function

Cc1cc(C)c(-c2csc(NC(=O)c3ccccc3)n2)c(C)c1 [INH-6, N-[4-(2,4,6-trimethylphenyl)-2-thiazolyl]-benzamide]
Excess over Bliss score (synergism) [1]: synergistic

COc1cc(NS(C)(=O)=O)ccc1Nc1c2ccccc2nc2ccccc12 [amsacrine, N-{4-[(acridin-9-yl)amino]-3-methoxyphenyl}methanesulfonamide]
Excess over Bliss score (synergism) [1]: synergistic

Oc1c(I)cc(Cl)c2cccnc12 [clioquinol, 5-chloro-7-iodoquinolin-8-ol]
Excess over Bliss score (synergism) [1]: synergistic

Nc1ccccc1NC(=O)c1ccc(CNC(=O)OCc2cccnc2)cc1 [entinostat, (pyridin-3-yl)methyl N-({4-[(2-aminophenyl)carbamoyl]phenyl}methyl)carbamate]
Excess over Bliss score (synergism) [1]: synergistic

CC#C[C@]1(O)CC[C@H]2[C@@H]3CCC4=CC(=O)CCC4=C3[C@@H](c3ccc(N(C)C)cc3)C[C@@]21C [mifepristone, (1S,3aS,3bS,10R,11 aS)-10-[4-(dimethylamino)phenyl]-1-hydroxy-11a-methyl-1-(prop-1-yn-1-yl)-1H,2H,3H,3aH,3bH,4H,5H,7H,8H,9H,10H,11H,11aH-cyclopenta[a]phenanthren-7-one]
Excess over Bliss score (synergism) [1]: synergistic

LNA ASO 3: LNA gapmer antisense oligonucleotide targeting SAMMSON, GTGTGAACTTGGCT (SEQ ID NO: 1), purchased from Qiagen (LNA gapmer from Qiagen, pattern not given here)
weight loss ([4]; subcutaneous 10 mg/kg LNA ASO 3, PDX mice): no weight loss | tumor growth ([4]; subcutaneous 10 mg/kg, three times in first week, twice per week in second and third week, compared to NTC treated PDX mice): significant tumor growth inhibition | knockdown and phenotypic effect compared to LNA ASO 11 (SAMMSON): more efficient knockdown and phenotypic effect | phosphorylated 4E-BP1 (T37/T46) levels (4E-BP1 (T37/T46)): less phosphorylated 4E-BP1 | translation rate (incorporated puromycin signal) [2]: translation inhibition | expression pattern of differentially expressed genes compared to NTC ASO [3]: reverses the expression pattern | phosphorylated rpS6 (S235/S236) levels (rpS6 (S235/S236)): doesn't affect the phosphorylation status of rpS6
